Results reported in US20240383913A1, “THIOPHENE RING COMPOUND, PREPARATION METHOD THEREFOR AND APPLICATION THEREOF” (CENTER FOR EXCELLENCE IN MOLECULAR CELL SCIENCE, CHINESE …, priority 2021, published 2024).

Key:
[1] = test system: restraint-induced depression-like behaviors; assay: Forced swimming test after 5-hour restraint; assay type: in vivo, C57B6 male mice
Procedure: The experimental animals were C57B6 male mice, n=8 in each group. 5-hour restraint were used to develop depression-like behavioral representations of the mice, then the effects of the compounds on their “depression-like” behaviors were measured according to behavioral performance in tail suspension test and forced swimming test. The specific experimental procedures were as follows: Firstly, the mice were restrained using a mouse fixator for tail vein injection. During the restraint process, all movement abilities of the mice were restricted under the condition of introducing minimal pain to the mice. Compounds were administered intraperitoneally twice, before and after restraint, respectively. After compound administration, the mice returned to the cage to recover for 30 minutes. […]
Forced swimming test: the mice were placed in a 5 L glass beaker filled with water, with the water level at 15 cm height, and the mice were forced to swim continuously in the beaker for 6 minutes. […] The duration of the immobility behavior was recorded intermittently for the remaining 4 minutes, and the immobility behavior of the mice was defined as: the mice float passively on the surface of the water without movement, with only small local movements required to maintain afloat. The duration of this immobility was measured to assess the level of behavioral despair in the mice. […]

5-HT1A receptor = 5-HT1A receptor (Homo sapiens (Human), UniProt P08908); assay: 5-HT1A receptor Gαi1 BRET (G protein trimer dissociation); assay type: cell-based; details: 5-HT1A receptor, G protein pathway;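 also: cells transiently co-expressing 5-HT1A receptor, luciferase-tagged Gαi1, Gβ3 and GFP-tagged Gγ9, seeded in 96-well plates for BRET measurement of G protein signaling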
Sequence of 5-HT1A receptor (P08908 whole entry): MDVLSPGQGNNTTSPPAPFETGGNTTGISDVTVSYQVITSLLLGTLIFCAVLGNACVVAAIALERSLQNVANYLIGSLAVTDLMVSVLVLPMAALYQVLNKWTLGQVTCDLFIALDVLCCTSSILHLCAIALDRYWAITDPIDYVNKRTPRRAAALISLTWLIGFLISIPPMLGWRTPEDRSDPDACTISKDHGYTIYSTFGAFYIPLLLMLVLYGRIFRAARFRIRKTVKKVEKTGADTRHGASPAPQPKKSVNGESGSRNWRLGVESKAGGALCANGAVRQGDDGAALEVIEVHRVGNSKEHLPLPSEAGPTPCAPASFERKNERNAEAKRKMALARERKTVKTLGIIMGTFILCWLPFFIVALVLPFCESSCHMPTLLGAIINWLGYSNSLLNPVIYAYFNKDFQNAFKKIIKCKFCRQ
Procedure: The affinity of the compounds of the present disclosure for the 5-HTIA receptors was determined by the method of radioligand competition experiment. In the first step, a cell membrane component containing specific 5-HTIA receptor was prepared. A 10 cm culture dish was used for transfection with 10 ng of the 5-HTIA receptor and 40 μL of PEI. After 48 hours, the 10 cm culture dish was taken out from the cell incubator and the cultured cells had expressed the 5-HTIA receptor. A vacuum pump was used to suck off the culture medium, 3 mL of lysis buffer was added to each culture dish, and the cells were placed in a 4° C. cold room for 10 minutes. After the cells were detached, the cells were transferred to a 15 mL centrifuge tube and centrifuged at 1500 rpm for 5 minutes at 4° C., and the supernatant was discarded. The cell pellet was transferred to a tissue homogenizer, and 3 mL of lysis buffer was added and fully ground until the cells were broken. Then, cell suspension was equally aliquoted into several EP tubes, centrifuged at 12000 rpm for 5 minutes at 4° C., and the supernatant was discarded. The precipitate was the cell membrane component containing the 5-HT1A receptor. […] First, a standard binding buffer was added to the cell membrane component containing the 5-HT1A receptor, and the cell membrane was disrupted and resuspended with an electric tissue homogenizer. 30 μL of membrane protein suspension was added to each well of a 96-well plate. Then, 30 μL of different drugs were added to the 96-well plate sequentially from bottom to top to ensure that the final drug concentrations were 10^−5 M, 10^−6 M, 10^−7 M, 10^−8 M, 10^−9 M, and 0 M, with two replicates per treatment. Next, 30 μL of [3H]-LSD was added to each well of the 96-well plate. The plate was incubated for 2 hours at room temperature in the dark. Detection was conducted. The machine readout value reflected the amount of [3H]-LSD bound on the membrane, and after further data processing, the affinity Ki values of different compounds for the 5-HTIA receptor were obtained. To examine the downstream G protein signaling pathway mediated by 5-HTIA receptors, on the first day, a 6 cm culture dish was used for transfection with 1 μg of 5-HTIA receptors, 1 μg of Gαi1 containing C-terminal seaweed luciferase (Gαi1-Rluc), 1 μg of Gβ3, 1 μg of Gγ9 containing C-terminal green fluorescent protein (Gγ9-GFP), and 16 μL of PEI. The next day, the confluent cells of a 6 cm culture dish were digested and reseeded into a 96-well plate with 100 μL of culture medium was added to each well. On the third day, the drugs were added for test. The 96-well plate was taken out from the cell incubator to decant the culture medium, 40 μL of the substrate coelenterazine 400a (final concentration of 5 μM) was added to each well, and then 20 μL of different drugs were added sequentially from left to right to ensure that the final concentration of the drug decreased gradually from bottom to top, with two replicates per treatment. Finally, the prepared samples were loaded on machine for test. The machine readout value reflected the dissociation of G protein trimer, and thereby indicated the degree of activation of the G protein signaling pathway downstream of the 5-HTIA receptors.

[2] = test system: hyperlocomotion of the mice induced by MK801; assay: Open field test, hyperlocomotion induced by MK801; assay type: in vivo, C57B6 male mice; details: for Distance (cm) travelled in 45 minutes: 0-45 minute interval after MK-801; for Distance travelled (cm): 5-minute bin
Procedure: Experimental method: The experimental animals were C57B6 male mice, n=8 in each group. This model used C57B6 mice as experimental animals. Hyperlocomotion of the mice in open field was induced by acute injection of a NMDA antagonist MK801. and modeled to test the inhibitory effect of different compounds on hyperkinesia phenotype induced by MK801. All mouse behavior experiments were carried out during the light period, and the whole process was recorded by the camera and locomotive data were tracked and analyzed by behavioral tracking software. The compounds were administered intraperitoneally. Immediately after the injection, the mice entered the open field and their movement trajectories were recorded by the camera. After 30 minutes, the mice received 0.2 mg/kg of MK801 by intraperitoneal injection and returned to the open field immediately after administration and the movement trajectories were further recorded for 120 minutes. The accumulative travelled distance of the mice was counted in a 5-minute bin. Data statistics were performed using Student-t-test analysis, *p<0.05, ** p<0.01, *** p<0.001, **** p<0.0001.

CN(C)C(=O)N[C@H]1CC[C@H](CCN2CCN3c4cccc5scc(c45)CC3C2)CC1 (single isomer, unassigned; (-)) [(−)-I-27]
Immobility time (seconds), forced swimming test ([1]; (−)-I-27 0.025 mg/kg i.p.): 91.83 ± 6.80 s | Immobility time (seconds), forced swimming test ([1]; (−)-I-27 0.1 mg/kg i.p.): 56.89 ± 4.80 s | Gαi1 BRET (Emax %) (5-HT1A receptor): (76%) | EC50 (5-HT1A receptor; read-out: Gαi1 BRET EC50): 166 nM | Inhibition of MK801-induced hyperlocomotion ([2]; 0.4/0.2/0.1 mg/kg intraperitoneally, MK801 0.2 mg/kg): significantly inhibit hyperlocomotion | Distance (cm) travelled in 45 minutes ([2]; (−)-I-27 0.1 mg/kg i.p. + MK801 0.2 mg/kg): 6882.3 cm | Distance travelled (cm) ([2]; (−)-I-27 0.1 mg/kg i.p. + MK801 0.2 mg/kg, 5 minutes after MK801): 420.96 ± 66.32 cm | Distance travelled (cm) ([2]; (−)-I-27 0.1 mg/kg i.p. + MK801 0.2 mg/kg, 10 minutes after MK801): 405.21 ± 55.18 cm | Distance travelled (cm) ([2]; (−)-I-27 0.1 mg/kg i.p. + MK801 0.2 mg/kg, 15 minutes after MK801): 482.21 ± 74.21 cm | Distance travelled (cm) ([2]; (−)-I-27 0.1 mg/kg i.p. + MK801 0.2 mg/kg, 20 minutes after MK801): 708.05 ± 61.74 cm | Distance travelled (cm) ([2]; (−)-I-27 0.1 mg/kg i.p. + MK801 0.2 mg/kg, 25 minutes after MK801): 895.54 ± 92.18 cm | Distance travelled (cm) ([2]; (−)-I-27 0.1 mg/kg i.p. + MK801 0.2 mg/kg, 30 minutes after MK801): 1035.67 ± 122.77 cm | Distance travelled (cm) ([2]; (−)-I-27 0.1 mg/kg i.p. + MK801 0.2 mg/kg, 35 minutes after MK801): 1075.2 ± 123.55 cm | Distance travelled (cm) ([2]; (−)-I-27 0.1 mg/kg i.p. + MK801 0.2 mg/kg, 45 minutes after MK801): 942.97 ± 82.87 cm | Distance travelled (cm) ([2]; (−)-I-27 0.1 mg/kg i.p. + MK801 0.2 mg/kg, 50 minutes after MK801): 985.86 ± 96.6 cm | Distance travelled (cm) ([2]; (−)-I-27 0.1 mg/kg i.p. + MK801 0.2 mg/kg, 55 minutes after MK801): 925.44 ± 118.24 cm | Distance travelled (cm) ([2]; (−)-I-27 0.1 mg/kg i.p. + MK801 0.2 mg/kg, 60 minutes after MK801): 937.96 ± 121.52 cm | Distance travelled (cm) ([2]; (−)-I-27 0.1 mg/kg i.p. + MK801 0.2 mg/kg, 65 minutes after MK801): 931.08 ± 108.91 cm | Distance travelled (cm) ([2]; (−)-I-27 0.1 mg/kg i.p. + MK801 0.2 mg/kg, 70 minutes after MK801): 839.2 ± 104.29 cm | Distance travelled (cm) ([2]; (−)-I-27 0.1 mg/kg i.p. + MK801 0.2 mg/kg, 75 minutes after MK801): 773.65 ± 117.99 cm | Distance travelled (cm) ([2]; (−)-I-27 0.1 mg/kg i.p. + MK801 0.2 mg/kg, 80 minutes after MK801): 691.57 ± 121.79 cm | Distance travelled (cm) ([2]; (−)-I-27 0.1 mg/kg i.p. + MK801 0.2 mg/kg, 85 minutes after MK801): 682.97 ± 115.06 cm | Distance travelled (cm) ([2]; (−)-I-27 0.1 mg/kg i.p. + MK801 0.2 mg/kg, 90 minutes after MK801): 611.63 ± 112.71 cm | Distance travelled (cm) ([2]; (−)-I-27 0.1 mg/kg i.p. + MK801 0.2 mg/kg, 95 minutes after MK801): 432.95 ± 85.66 cm | Distance travelled (cm) ([2]; (−)-I-27 0.1 mg/kg i.p. + MK801 0.2 mg/kg, 100 minutes after MK801): 405.27 ± 69.97 cm | Distance travelled (cm) ([2]; (−)-I-27 0.1 mg/kg i.p. + MK801 0.2 mg/kg, 105 minutes after MK801): 391.87 ± 78.94 cm | Distance travelled (cm) ([2]; (−)-I-27 0.1 mg/kg i.p. + MK801 0.2 mg/kg, 110 minutes after MK801): 351.08 ± 112.22 cm | Distance travelled (cm) ([2]; (−)-I-27 0.1 mg/kg i.p. + MK801 0.2 mg/kg, 115 minutes after MK801): 310.3 ± 83.61 cm | Distance travelled (cm) ([2]; (−)-I-27 0.1 mg/kg i.p. + MK801 0.2 mg/kg, 120 minutes after MK801): 339.28 ± 95.35 cm | Distance travelled (cm) ([2]; (−)-I-27 0.1 mg/kg i.p., 0 minutes, before MK801): 446.62 ± 49.69 cm | Distance travelled (cm) ([2]; (−)-I-27 0.1 mg/kg i.p., −5 minutes, before MK801): 473.13 ± 38.54 cm | Distance travelled (cm) ([2]; (−)-I-27 0.1 mg/kg i.p., −10 minutes, before MK801): 479.62 ± 34 cm | Distance travelled (cm) ([2]; (−)-I-27 0.1 mg/kg i.p., −15 minutes, before MK801): 522.39 ± 41.17 cm | Distance travelled (cm) ([2]; (−)-I-27 0.1 mg/kg i.p., −20 minutes, before MK801): 606.78 ± 43.01 cm | Distance travelled (cm) ([2]; (−)-I-27 0.1 mg/kg i.p., −25 minutes, before MK801): 827.15 ± 76.34 cm | Distance (cm) travelled in 45 minutes ([2]; (−)-I-27 0.2 mg/kg i.p. + MK801 0.2 mg/kg): 5849.12 cm | Distance travelled (cm) ([2]; (−)-I-27 0.2 mg/kg i.p. + MK801 0.2 mg/kg, 5 minutes after MK801): 527.23 ± 55.9 cm | Distance travelled (cm) ([2]; (−)-I-27 0.2 mg/kg i.p. + MK801 0.2 mg/kg, 10 minutes after MK801): 353.73 ± 61.92 cm | Distance travelled (cm) ([2]; (−)-I-27 0.2 mg/kg i.p. + MK801 0.2 mg/kg, 15 minutes after MK801): 415.6 ± 122.18 cm | Distance travelled (cm) ([2]; (−)-I-27 0.2 mg/kg i.p. + MK801 0.2 mg/kg, 20 minutes after MK801): 555.77 ± 141.94 cm | Distance travelled (cm) ([2]; (−)-I-27 0.2 mg/kg i.p. + MK801 0.2 mg/kg, 25 minutes after MK801): 775.2 ± 174.1 cm | Distance travelled (cm) ([2]; (−)-I-27 0.2 mg/kg i.p. + MK801 0.2 mg/kg, 30 minutes after MK801): 815.56 ± 168.41 cm | Distance travelled (cm) ([2]; (−)-I-27 0.2 mg/kg i.p. + MK801 0.2 mg/kg, 35 minutes after MK801): 844.11 ± 141.81 cm | Distance travelled (cm) ([2]; (−)-I-27 0.2 mg/kg i.p. + MK801 0.2 mg/kg, 40 minutes after MK801): 771.62 ± 111.37| cm | Distance travelled (cm) ([2]; (−)-I-27 0.2 mg/kg i.p. + MK801 0.2 mg/kg, 45 minutes after MK801): 790.3 ± 145.96 cm | Distance travelled (cm) ([2]; (−)-I-27 0.2 mg/kg i.p. + MK801 0.2 mg/kg, 50 minutes after MK801): 741.75 ± 130.61 cm | Distance travelled (cm) ([2]; (−)-I-27 0.2 mg/kg i.p. + MK801 0.2 mg/kg, 55 minutes after MK801): 547.84 ± 71.53 cm | Distance travelled (cm) ([2]; (−)-I-27 0.2 mg/kg i.p. + MK801 0.2 mg/kg, 60 minutes after MK801): 707.09 ± 102.86 cm | Distance travelled (cm) ([2]; (−)-I-27 0.2 mg/kg i.p. + MK801 0.2 mg/kg, 65 minutes after MK801): 653.46 ± 142.7 cm | Distance travelled (cm) ([2]; (−)-I-27 0.2 mg/kg i.p. + MK801 0.2 mg/kg, 70 minutes after MK801): 449.29 ± 121.61 cm
